Tests used:
[1] = molecular target: human adenosine A1 receptor (Homo sapiens (Human), UniProt P30542); test: Adenosine receptor inhibition binding assay, [3H]DPCPX, A1 receptor membranes; settings: 1 nM [3H]DPCPX, 25° C., 1 h, Ki from IC50 by Cheng-Prusoff; for Ki: read-out: A1 pKi (converted)
Outline: (§1)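 Membranes from BacMam-transduced HEK293 cells (0.2 µg A2A; 1.4 µg A1) incubated 1 h at 25 °C with 1 nM radioligand; A2A in 50 mM Tris-HCl pH 7.4, A1 buffer adds 100 mM NaCl, 10 mM MgCl2. Nonspecific binding: 1 µM CGS 15943 (A2A) or 1 µM DPCPX (A1). Filtration, scintillation counting; IC50 converted to Ki via Cheng-Prusoff.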

[2] = molecular target: human adenosine A2A receptor (Homo sapiens (Human), UniProt P29274); test: Adenosine receptor inhibition binding assay, [3H]ZM241385, HEK293 A2A receptor membranes; settings: 1 nM [3H]ZM241385, HEK293-hA2A membranes, 25° C., 1 h, Ki from IC50 by Cheng-Prusoff; for Ki: read-out: A2A pKi (converted)
Outline: as §1

human CB1 receptor = human CB1 receptor (Homo sapiens (Human), UniProt P21554); test: CB1 receptor antagonism, agonist-induced cAMP modulation (HTRF) in transfected CHO cells; type: cell-based; settings: read-out: Antag IC50
Protocol: Receptor antagonism: Evaluation of the antagonist activity of compounds at the human CB1 receptor expressed in transfected CHO cells, determined by measuring their effects on agonist-induced cAMP modulation using the HTRF detection method.
Thereafter, the reference agonist CP 55940 and the adenylyl cyclase activator NKH 477 are added at respective final concentrations of 3 nM and 3 µM.
For basal control measurements, CP 55940 is omitted from the wells containing 3 µM AM 281.
Following 20 min incubation at 37° C., the cells are lysed and the fluorescence acceptor (D2-labeled cAMP) and fluorescence donor (anti-cAMP antibody labeled with europium cryptate) are added.
After 60 min at room temperature, the fluorescence transfer is measured at λex=337 nm and λem=620 and 665 nm using a microplate reader (Rubystar, BMG). The cAMP concentration is determined by dividing the signal measured at 665 nm by that measured at 620 nm (ratio).
The standard reference antagonist is AM 281, which is tested in each experiment at several concentrations to generate a concentration-response curve from which its IC50 value is calculated.

Chain of human adenosine A2A receptor (P29274 whole entry): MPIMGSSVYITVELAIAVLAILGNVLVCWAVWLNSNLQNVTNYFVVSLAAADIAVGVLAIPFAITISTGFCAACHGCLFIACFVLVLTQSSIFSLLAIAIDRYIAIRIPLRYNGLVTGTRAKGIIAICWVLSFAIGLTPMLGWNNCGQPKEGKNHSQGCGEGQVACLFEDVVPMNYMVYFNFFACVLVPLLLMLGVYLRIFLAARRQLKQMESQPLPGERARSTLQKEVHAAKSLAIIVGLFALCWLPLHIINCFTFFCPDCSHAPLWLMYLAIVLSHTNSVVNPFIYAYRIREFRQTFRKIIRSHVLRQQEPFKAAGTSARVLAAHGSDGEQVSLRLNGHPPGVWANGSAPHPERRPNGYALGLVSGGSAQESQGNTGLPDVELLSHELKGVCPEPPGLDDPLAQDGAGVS
Chain of human CB1 receptor (P21554 whole entry): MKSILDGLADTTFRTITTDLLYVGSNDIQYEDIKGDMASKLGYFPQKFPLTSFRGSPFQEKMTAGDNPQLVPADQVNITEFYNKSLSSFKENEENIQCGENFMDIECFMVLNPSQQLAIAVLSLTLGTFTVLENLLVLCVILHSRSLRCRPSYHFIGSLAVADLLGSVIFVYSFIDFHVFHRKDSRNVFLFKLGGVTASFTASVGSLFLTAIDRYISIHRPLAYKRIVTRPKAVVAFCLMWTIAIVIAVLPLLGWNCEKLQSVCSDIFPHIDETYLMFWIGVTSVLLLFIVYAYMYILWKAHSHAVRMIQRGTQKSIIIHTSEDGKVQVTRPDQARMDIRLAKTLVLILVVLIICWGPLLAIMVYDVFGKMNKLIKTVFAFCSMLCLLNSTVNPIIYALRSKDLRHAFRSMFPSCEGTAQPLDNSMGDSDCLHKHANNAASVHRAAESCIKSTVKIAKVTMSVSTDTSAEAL
Chain of human adenosine A1 receptor (P30542 whole entry): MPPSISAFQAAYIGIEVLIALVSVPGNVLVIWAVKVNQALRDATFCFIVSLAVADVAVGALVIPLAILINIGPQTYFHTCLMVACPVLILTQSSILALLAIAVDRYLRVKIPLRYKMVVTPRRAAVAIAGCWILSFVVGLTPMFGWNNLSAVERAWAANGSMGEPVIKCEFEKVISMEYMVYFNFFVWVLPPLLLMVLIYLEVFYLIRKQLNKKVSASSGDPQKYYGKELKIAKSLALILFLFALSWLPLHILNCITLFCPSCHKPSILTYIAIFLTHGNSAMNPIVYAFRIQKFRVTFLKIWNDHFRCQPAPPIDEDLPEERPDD

Cc1cc(-c2c(-c3ccccc3)nc(N)n3c(=O)n(CCc4nnnn4C)nc23)cc(C)n1 [Example 1-5, 5-amino-8-(2,6-dimethyl-4-pyridyl)-2-[2-(1-methyltetrazol-5-yl)ethyl]-7-phenyl-[1,2,4]triazolo[4,3-c]pyrimidin-3-one]
A1 pKi [1]: <5.4 | A2A pKi [2]: 7.2 | IC50 (human CB1 receptor): > 100 µM

Cc1cc(-c2c(-c3ccccc3)nc(N)n3c(=O)n(Cc4ccn(C)n4)nc23)cc(C)n1 [Example 1-16, 5-amino-8-(2,6-dimethyl-4-pyridyl)-2-[(1-methylpyrazol-3-yl)methyl]-7-phenyl-[1,2,4]triazolo[4,3-c]pyrimidin-3-one]
A1 pKi [1]: 7.2 | A2A pKi [2]: 9.4 | IC50 (human CB1 receptor): > 100 µM

Cc1nc(Cn2nc3c(-c4cc(C)[n+]([O-])c(C)c4)c(-c4ccc(F)cc4)nc(N)n3c2=O)c(C)o1 [Example 1-35, 5-amino-2-[(2,5-dimethyloxazol-4-yl)methyl]-8-(2,6-dimethyl-1-oxido-pyridin-1-ium-4-yl)-7-(4-fluorophenyl)-[1,2,4]triazolo[4,3-c]pyrimidin-3-one]
A1 pKi [1]: 7.4 | A2A pKi [2]: 8.4 | IC50 (human CB1 receptor): > 100 µM

Cc1cc(-c2c(-c3ccccc3)nc(N)n3c(=O)n(Cc4nccn4C)nc23)cc(C)[n+]1[O-] [Example 1-36, 5-amino-8-(2,6-dimethyl-1-oxido-pyridin-1-ium-4-yl)-2-[(1-methylimidazol-2-yl)methyl]-7-phenyl-[1,2,4]triazolo[4,3-c]pyrimidin-3-one]
A1 pKi [1]: 7.3 | A2A pKi [2]: 8.0 | IC50 (human CB1 receptor): > 100 µM

Cc1ocnc1Cn1nc2c(-c3cc(C)[n+]([O-])c(C)c3)c(-c3ccc(F)cc3)nc(N)n2c1=O [Example 1-37, 5-amino-8-(2,6-dimethyl-1-oxido-pyridin-1-ium-4-yl)-7-(4-fluorophenyl)-2-[(5-methyloxazol-4-yl)methyl]-[1,2,4]triazolo[4,3-c]pyrimidin-3-one]
A1 pKi [1]: 6.8 | A2A pKi [2]: 8.8 | IC50 (human CB1 receptor): > 100 µM

COc1cc(-c2c(-c3ccccc3)nc(N)n3c(=O)n(Cc4nccn4C)nc23)cc(C)n1 [Example 1-38, 5-amino-8-(2-methoxy-6-methyl-4-pyridyl)-2-[(1-methylimidazol-2-yl)methyl]-7-phenyl-[1,2,4]triazolo[4,3-c]pyrimidin-3-one]
A1 pKi [1]: 7.8 | A2A pKi [2]: 9.5 | IC50 (human CB1 receptor): > 100 µM

Cc1cc(-c2c(-c3ccccc3)nc(N)n3c(=O)n(Cc4nonc4C)nc23)cc(CO)n1 [Example 1-46, 5-amino-8-[2-(hydroxymethyl)-6-methyl-4-pyridyl]-2-[(4-methyl-1,2,5-oxadiazol-3-yl)methyl]-7-phenyl-[1,2,4]triazolo[4,3-c]pyrimidin-3-one]
A1 pKi [1]: 6.4 | A2A pKi [2]: 9.3 | IC50 (human CB1 receptor): > 100 µM

Cc1cc(-c2c(-c3ccc(F)cc3)nc(N)n3c(=O)n(Cc4ccn(C)n4)nc23)cc(CO)n1 [Example 1-52, 5-amino-7-(4-fluorophenyl)-8-[2-(hydroxymethyl)-6-methyl-4-pyridyl]-2-[(1-methylpyrazol-3-yl)methyl]-[1,2,4]triazolo[4,3-c]pyrimidin-3-one]
A1 pKi [1]: 6.7 | A2A pKi [2]: 8.6 | IC50 (human CB1 receptor): > 100 µM

Cc1cc(-c2c(-c3ccc(F)cc3)nc(N)n3c(=O)n(Cc4nc(C)oc4C)nc23)cc(CO)n1 [Example 1-53, 5-amino-2-[(2,5-dimethyloxazol-4-yl)methyl]-7-(4-fluorophenyl)-8-[2-(hydroxymethyl)-6-methyl-4-pyridyl]-[1,2,4]triazolo[4,3-c]pyrimidin-3-one]
A1 pKi [1]: 6.5 | A2A pKi [2]: 9.2 | IC50 (human CB1 receptor): > 100 µM

Cn1ccnc1Cn1nc2c(-c3cc(Cl)nc(CO)c3)c(-c3ccccc3)nc(N)n2c1=O [Example 1-55, 5-amino-8-[2-chloro-6-(hydroxymethyl)-4-pyridyl]-2-[(1-methylimidazol-2-yl)methyl]-7-phenyl-[1,2,4]triazolo[4,3-c]pyrimidin-3-one]
A1 pKi [1]: 7.5 | A2A pKi [2]: 9.4 | IC50 (human CB1 receptor): > 100 µM

Cn1ccnc1Cn1nc2c(-c3cc(Cl)nc(CO)c3)c(-c3ccc(F)cc3)nc(N)n2c1=O [Example 1-58, 5-amino-8-[2-chloro-6-(hydroxymethyl)-4-pyridyl]-7-(4-fluorophenyl)-2-[(1-methylimidazol-2-yl)methyl]-[1,2,4]triazolo[4,3-c]pyrimidin-3-one]
A1 pKi [1]: 7.1 | A2A pKi [2]: 9.5 | IC50 (human CB1 receptor): > 100 µM

COc1cc(-c2c(-c3ccccc3)nc(N)n3c(=O)n(Cc4nccn4C)nc23)cc(CO)n1 [Example 1-61, 5-amino-8-[2-(hydroxymethyl)-6-methoxy-4-pyridyl]-2-[(1-methylimidazol-2-yl)methyl]-7-phenyl-[1,2,4]triazolo[4,3-c]pyrimidin-3-one]
A1 pKi [1]: 6.8 | A2A pKi [2]: 9.5 | IC50 (human CB1 receptor): > 100 µM

[2H]c1c([2H])c([2H])c(-c2nc(N)n3c(=O)n(C[C@H]4CCCO4)nc3c2-c2cc(C)nc(CO)c2)c([2H])c1[2H] [Example 2-30, 5-amino-8-[2-(hydroxymethyl)-6-methyl-4-pyridyl]-7-(2,3,4,5,6-pentadeuteriophenyl)-2-[[(2R)-tetrahydrofuran-2-yl]methyl]-[1,2,4]triazolo[4,3-c]pyrimidin-3-one]
Ki [1]: 0.501 µM | Ki [2]: 0.001 µM

Cc1cc(-c2c(-c3ccc(F)cc3)nc(N)n3c(=O)n(C[C@H]4CCCO4)nc23)cc(CO)n1 [Example 2-31, 5-amino-7-(4-fluorophenyl)-8-[2-(hydroxymethyl)-6-methyl-4-pyridyl]-2-[[(2R)-tetrahydrofuran-2-yl]methyl]-[1,2,4]triazolo[4,3-c]pyrimidin-3-one]
A1 pKi [1]: 6.1 | A2A pKi [2]: 8.4

[2H]c1c([2H])c([2H])c(-c2nc(N)n3c(=O)n(C[C@H]4CCCO4)nc3c2-c2cc(Cl)nc(CO)c2)c([2H])c1[2H] [Example 2-33, 5-amino-8-[2-chloro-6-(hydroxymethyl)-4-pyridyl]-7-(2,3,4,5,6-pentadeuteriophenyl)-2-[[(2R)-tetrahydrofuran-2-yl]methyl]-[1,2,4]triazolo[4,3-c]pyrimidin-3-one]
Ki [1]: 0.158 µM | Ki [2]: 0.000316 µM

Nc1nc(-c2ccc(F)cc2)c(-c2cc(Cl)nc(CO)c2)c2nn(C[C@H]3CCCO3)c(=O)n12 [Example 2-34, 5-amino-8-[2-chloro-6-(hydroxymethyl)-4-pyridyl]-7-(4-fluorophenyl)-2-[[(2R)-tetrahydrofuran-2-yl]methyl]-[1,2,4]triazolo[4,3-c]pyrimidin-3-one]
A1 pKi [1]: 6.3 | A2A pKi [2]: 9.4

[2H]c1c([2H])c([2H])c(-c2nc(N)n3c(=O)n(C[C@H]4CCCO4)nc3c2-c2cc(CO)nc(OC)c2)c([2H])c1[2H] [Example 2-36, 5-amino-8-[2-(hydroxymethyl)-6-methoxy-4-pyridyl]-7-(2,3,4,5,6-pentadeuteriophenyl)-2-[[(2R)-tetrahydrofuran-2-yl]methyl]-[1,2,4]triazolo[4,3-c]pyrimidin-3-one]
Ki [1]: 1.26 µM | Ki [2]: 0.000794 µM

COc1cc(-c2c(-c3ccc(F)cc3)nc(N)n3c(=O)n(C[C@H]4CCCO4)nc23)cc(CO)n1 [Example 2-37, 5-amino-7-(4-fluorophenyl)-8-[2-(hydroxymethyl)-6-methoxy-4-pyridyl]-2-[[(2R)-tetrahydrofuran-2-yl]methyl]-[1,2,4]triazolo[4,3-c]pyrimidin-3-one]
A1 pKi [1]: 5.5 | A2A pKi [2]: 9.0

Cc1cc(-c2c(-c3ccccc3)nc(N)n3c(=O)n(CCNC4CCN(C(=O)c5cccnc5)C4)nc23)cc(C)n1 (stereo not drawn) [Example 3-2, 5-amino-8-(2,6-dimethyl-4-pyridyl)-7-phenyl-2-[2-[[1-(pyridine-3-carbonyl)pyrrolidin-3-yl]amino]ethyl]-[1,2,4]triazolo[4,3-c]pyrimidin-3-one]
A1 pKi [1]: 5.6 | A2A pKi [2]: 6.9

Cc1cc(-c2c(-c3ccccc3)nc(N)n3c(=O)n(CCN(C)c4cn[nH]c4)nc23)cc(C)n1 [Example 3-3, 5-amino-8-(2,6-dimethyl-4-pyridyl)-2-[2-[methyl(1H-pyrazol-4-yl)amino]ethyl]-7-phenyl-[1,2,4]triazolo[4,3-c]pyrimidin-3-one]
A1 pKi [1]: 5.7 | A2A pKi [2]: 7.2

Cc1cc(-c2c(N3CCCCC3)nc(N)n3c(=O)n(Cc4ncoc4C)nc23)cc(C)n1 [Example 4-1, 5-amino-8-(2,6-dimethyl-4-pyridyl)-2-[(5-methyloxazol-4-yl)methyl]-7-(1-piperidyl)-[1,2,4]triazolo[4,3-c]pyrimidin-3-one]
A1 pKi [1]: <6.0 | A2A pKi [2]: 8.9
